This series concerns mouse carcinogenicity bioassay, TD50 from CPDB. Nature of the series: DSSTox (CPDBAS) Carcinogenic Potency Database Summary Mouse Bioassay Results. Put shortly:
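Chronic long-term mouse cancer bioassays from literature and NCI/NTP, compiled per sex. TD50 is the standardized carcinogenic potency, using the most positive experiment per sex-species; target sites follow author opinion.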

[1] abbreviates: TargetSites_Mouse_Female: no positive results.
[2] abbreviates: TD50_Mouse_Note: no positive results, TargetSites_Mouse_Female: no positive results.
The mark [3] stands for this setting: TD50_Mouse_Note: TD50 is harmonic mean of more than one positive test, TargetSites_Mouse_Female: liver.
[4] abbreviates: TD50_Mouse_Note: TD50 is harmonic mean of more than one positive test, TargetSites_Mouse_Female: lung.
The mark [5] stands for this setting: TargetSites_Mouse_Female: liver.
Where [6] appears, read: TD50_Mouse_Note: no positive results.

Calls of active or inactive are those of the source.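 How the source made its calls: active means a tumour-causing dose and a tumour site recorded for mice in at least one sex group; inconclusive means only government mouse studies exist and were judged inadequate; inactive means mouse studies exist but none gave tumours.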

Turning to `C=C1C(CCl)(CCl)C2(Cl)C(Cl)C(Cl)C1(Cl)C2(Cl)Cl` (stereo not given), under “TD50_Mouse_Note: TD50 is harmonic mean of more than one positive test, TD50_Mouse_mmol was not calculated for this mixture, but Activiity, TargetSites_Mouse_Female: liver”, the outcome is “active; liver”.

For the compound `Nc1c(Cl)cc(Cl)cc1Cl`, the Potency under setting [1] was 1.32 mmol/kg/day. In the case of `Nc1c(Cl)c(Cl)nc(C(=O)O)c1Cl`, under setting [2], the outcome was “inactive; no positive results”. Same read-out and setting: to `CCN(CC)C(=S)[S-].CCN(CC)C(=S)[S-].[Zn+2]` belongs “inactive; no positive results”.

In the case of `O=C(O)C(Cl)Cl`, the Potency under setting [3] is 0.923 mmol/kg/day. With `O=CCBr`, the outcome under setting [2] was “inactive; no positive results”. On the same count and under the same terms, the value for `CC1=C(C(=O)OC(C)C)C(c2cccc([N+](=O)[O-])c2)C(C(=O)OC2CN(C(c3ccccc3)c3ccccc3)C2)=C(N)N1` (stereo not given) was “inactive; no positive results”.

For `COc1cc(CNC(=O)CCCC/C=C/C(C)C)ccc1O`, where the note is “TD50_Mouse_Note: TD50 is harmonic mean of more than one positive test, no positive results are statistically significant, TargetSites_Mouse_Female: large intestine”, the Potency is 0.547 mmol/kg/day. As for `CC(=O)NNc1ccc(CO)cc1`, the Potency (TD50_Mouse_Note: TD50 is harmonic mean of more than one positive test, TargetSites_Mouse_Female: lung, vascular system) is 1.34 mmol/kg/day. With `NC(=O)NNc1ccccc1`, the Potency under setting [4] was 1.09 mmol/kg/day. Regarding `CC[C@H](C)C(=O)O[C@H]1C[C@@H](C)C=C2C=C[C@H](C)[C@H](CC[C@@H]3C[C@@H](O)CC(=O)O3)[C@H]21`, the Potency (TD50_Mouse_Note: TD50 is harmonic mean of more than one positive test, TargetSites_Mouse_Female: liver, lung, stomach) was 1.27 mmol/kg/day. For `c1ccc2n[nH]nc2c1`, the outcome under setting [2] is “inactive; no positive results”. `Oc1c(Cl)cc(Cl)c(Cl)c1Cc1c(O)c(Cl)cc(Cl)c1Cl`: the outcome under setting [2] is “inactive; no positive results”.

On to `Oc1cccc2cccnc12.Oc1cccc2cccnc12.[Cu]`, for which, under setting [2], the outcome is “inactive; no positive results”. For the compound `c1ccccc1`, the Potency (TD50_Mouse_Note: TD50 is harmonic mean of more than one positive test, greater than ten-fold variation among TD50 values for positive res, TargetSites_Mouse_Female: ear Zymbals gland, hematopoietic system, lung, mammary gland, ovary) is 0.992 mmol/kg/day. In the case of `CC/C=C(/CC)[N+](=O)[O-]`, the Potency (TargetSites_Mouse_BothSexes: lung) is 0.00268 mmol/kg/day. In the case of `S=C=Nc1ccccc1`, the outcome under setting [2] was “inactive; no positive results”.

`Cn1cnc([N+](=O)[O-])c1Sc1ncnc2nc[nH]c12`: the Potency (TargetSites_Mouse_Female: hematopoietic system, vascular system) was 0.0322 mmol/kg/day.

Regarding `ClCOCCl`, under “TD50_Mouse_Note: TD50 is harmonic mean of more than one positive test, TargetSites_Mouse_Female: peritoneal cavity”, the Potency is 0.00158 mmol/kg/day.

Turning to `COc1ccc2nc(S(=O)Cc3ncc(C)c(OC)c3C)[nH]c2c1` (stereo not given), under setting [2], the outcome was “inactive; no positive results”.

Regarding `CN(N=O)c1ncnc2c1ncn2[C@@H]1O[C@H](CO)[C@@H](O)[C@H]1O`, the Potency (TD50_Mouse_Note: TD50 is harmonic mean of more than one positive test, TargetSites_Mouse_Female: lung, mammary gland, uterus) was 0.059 mmol/kg/day. `Cc1cc(O)c(C(C)(C)C)cc1Sc1cc(C(C)(C)C)c(O)cc1C`: under setting [2], the outcome was “inactive; no positive results”.

Consider `CCCCCCCCS(=O)C(C)Cc1ccc2c(c1)OCO2` (stereo not given), for which, under setting [1], the Potency is 0.192 mmol/kg/day. `C[N+](C)(C)CCCl`: under setting [2], the outcome is “inactive; no positive results”. Still for that read-out and setting: the value for `CC(C)Oc1ccc(Nc2ccccc2)cc1` was “inactive; no positive results”. On to `Nc1ccc2cc3ccc(N)cc3nc2c1`, for which the outcome (TD50_Mouse_Note: only experiment is NCI/NTP bioassay inadequate, TargetSites_Mouse_Female: NTP bioassay inadequate) is listed as “ntp bioassay inadequate”. As to `CC1=CC(=O)NS(=O)(=O)O1`, the outcome under setting [2] is “inactive; no positive results”. For `O=C1NC(=O)C(c2ccccc2)(c2ccccc2)N1`, under setting [5], the Potency is 0.234 mmol/kg/day.

Take `Clc1ccc2c(c1)C(c1ccccc1)=NCc1nncn1-2`: under setting [2], the outcome was “inactive; no positive results”. Still for that read-out and setting: the value for `CC(=O)C(N=Nc1ccc(-c2ccc(N=NC(C(C)=O)C(=O)Nc3ccccc3)c(Cl)c2)cc1Cl)C(=O)Nc1ccccc1` (stereo not given) was “inactive; no positive results”; that for `O=C1CCCO1` was “inactive; no positive results”. For `Oc1ccc(OCc2ccccc2)cc1`, the outcome under setting [2] is “inactive; no positive results”. The same measure, in the same setting: the value for `CCOC(=O)CC(SP(=S)(OC)OC)C(=O)OCC` (stereo not given) was “inactive; no positive results”; that for `Nc1cc(Cl)c(-c2cc(Cl)c(N)cc2Cl)cc1Cl` was “inactive”; that for `CC(C)C=O` was “inactive; no positive results”. On to `c1ccc(Nc2ccc(Nc3ccccc3)cc2)cc1`, for which the outcome under setting [2] is “inactive; no positive results”. For the compound `CCOc1ccccc1C(N)=O`, the Potency under setting [1] was 3.11 mmol/kg/day. Take `CC(=O)OC[C@H]1O[C@H](O[C@]2(COC(C)=O)O[C@H](COC(=O)C(C)C)[C@@H](OC(=O)C(C)C)[C@@H]2OC(=O)C(C)C)[C@H](OC(=O)C(C)C)[C@@H](OC(=O)C(C)C)[C@@H]1OC(=O)C(C)C`: under setting [2], the outcome was “inactive; no positive results”.

With `Cc1cc(N=Nc2ccccc2C)ccc1N`, the outcome under setting [6] was “inactive; no positive results”. In the case of `[O-]/[N+](=N\O)c1ccccc1`, the Potency (TD50_Mouse_Note: TD50 is harmonic mean of more than one positive test, TargetSites_Mouse_Female: ear Zymbals gland, harderian gland, liver, vascular system) is 3.77 mmol/kg/day.

On to `O=C(O)CCCC/C=C(\c1ccccc1)c1cccnc1`, for which the outcome under setting [2] is “inactive; no positive results”. With `COC(=O)[C@H]1[C@H]2C[C@@H]3c4[nH]c5cc(OC)ccc5c4CCN3C[C@H]2C[C@@H](OC(=O)c2cc(OC)c(OC)c(OC)c2)[C@@H]1OC`, the Potency (TD50_Mouse_Note: TD50 is harmonic mean of more than one positive test, TargetSites_Mouse_Female: mammary gland) is 0.00825 mmol/kg/day. Take `Cc1ccc(OP(=O)(Oc2ccc(C)cc2)Oc2ccc(C)cc2)cc1`: the outcome under setting [2] is “inactive; no positive results”.

As for `O=NN(c1ccccc1)c1ccccc1`, under setting [2], the outcome is “inactive; no positive results”. On to `O.O.O.O.O.O.O.O=S(=O)([O-])[O-].[Co+2]`, for which, under setting [4], the Potency is 0.00269 mmol/kg/day. For the compound `CCOC(N)=O`, the Potency (TD50_Mouse_Note: TD50 is harmonic mean of more than one positive test, greater than ten-fold variation among TD50 values for positive res, TargetSites_Mouse_Female: lung) was 0.19 mmol/kg/day. Consider `NNc1ccccc1`, for which the Potency (TD50_Mouse_Note: TD50 is harmonic mean of more than one positive test, TargetSites_Mouse_Female: vascular system) was 0.493 mmol/kg/day. Further, the result under setting [2] was inactive. On to `CC(=O)NNC(C)=O`, for which the outcome under setting [2] is “inactive; no positive results”.

Take `CC(=O)[O][Hg][c]1ccccc1`: under setting [2], the outcome was “inactive; no positive results”. Regarding `CC(N)=S`, the Potency (TD50_Mouse_Note: TD50 is harmonic mean of more than one positive test, harmonic mean of TD50 includes a value for upper 99% confidence li, TargetSites_Mouse_Female: liver) was 0.117 mmol/kg/day. For the compound `O=C1C2(Cl)C3(Cl)C4(Cl)C(Cl)(Cl)C5(Cl)C3(Cl)C1(Cl)C5(Cl)C24Cl` (stereo not given), the Potency under setting [3] is 0.002 mmol/kg/day. In the case of `Cc1ccccc1N`, the Potency (TD50_Mouse_Note: TD50 is harmonic mean of more than one positive test, TargetSites_Mouse_Female: liver, vascular system) is 5.85 mmol/kg/day. For `N[C@@H](Cc1c[nH]c2ccccc12)C(=O)O`, under setting [2], the outcome was “inactive; no positive results”.

For the compound `O=C1c2ccccc2C(=O)N1SC(Cl)(Cl)Cl`, the Potency (TD50_Mouse_Note: TD50 is harmonic mean of more than one positive test, TargetSites_Mouse_Female: small intestine) was 5.23 mmol/kg/day.

Take `OC[C@H]1O[C@@](CO)(O[C@H]2O[C@H](CO)[C@@H](O)[C@H](O)[C@H]2O)[C@@H](O)[C@@H]1O`: the outcome under setting [2] was “inactive; no positive results”.

Regarding `Oc1c(Cl)cc(Cl)cc1Sc1cc(Cl)cc(Cl)c1O`, the outcome under setting [2] is “inactive; no positive results”.

Consider `NNc1nc(-c2ccc([N+](=O)[O-])o2)cs1`, for which, where the note is “TargetSites_Mouse_Female: stomach”, the Potency is 0.0725 mmol/kg/day. As for `O=C(O)O`, the outcome under setting [6] is “inactive; no positive results”.

Consider `COc1ccc([N+](=O)[O-])cc1N=Nc1c(O)c(C(=O)Nc2cccc([N+](=O)[O-])c2)cc2ccccc12`, for which the outcome under setting [2] was “inactive; no positive results”. Take `OCCN(CCO)CCO`: under “TD50_Mouse_Note: TD50 is harmonic mean of more than one positive test, TargetSites_Mouse_Female: all tumor bearing animals”, the Potency is 0.67 mmol/kg/day. On to `CO[C@H]1/C=C/O[C@@]2(C)Oc3c(C)c(O)c4c(O)c(c(/C=N/N5CCN(C)CC5)c(O)c4c3C2=O)NC(=O)/C(C)=C\C=C\[C@H](C)[C@H](O)[C@@H](C)[C@@H](O)[C@@H](C)[C@H](OC(C)=O)[C@@H]1C`, for which the Potency under setting [5] was 0.0408 mmol/kg/day. For the compound `ClCC(Cl)CCl`, the Potency (TD50_Mouse_Note: TD50 is harmonic mean of more than one positive test, TargetSites_Mouse_Female: harderian gland, liver, oral cavity, stomach, uterus) was 0.00593 mmol/kg/day. Consider `NC(=O)N/N=C/c1ccc([N+](=O)[O-])o1`, for which the Potency (TargetSites_Mouse_Female: ovary) was 0.155 mmol/kg/day. For the compound `ClC(Cl)=C(Cl)c1c(Cl)c(Cl)c(Cl)c(Cl)c1Cl`, the outcome under setting [6] is “inactive; no positive results”. In the case of `NC(=O)c1cnccn1`, for the setting “TD50_Mouse_Note: no positive results, TargetSites_Mouse_Female: NTP bioassay inadequate”, the outcome is “inactive; no positive results”. On to `CC/C(=C(/CC)c1ccc(O)cc1)c1ccc(O)cc1`, for which the Potency (TD50_Mouse_Note: TD50 is harmonic mean of more than one positive test, TargetSites_Mouse_Female: mammary gland, ovary, pituitary gland, thyroid gland, uterus) was 0.000146 mmol/kg/day. On to `CCOc1ccc(NC(C)=O)cc1`, for which, for the setting “TD50_Mouse_Note: TD50 is harmonic mean of more than one positive test, greater than ten-fold variation among TD50 values for positive res, TargetSites_Mouse_Female: urinary bladder”, the Potency is 11.9 mmol/kg/day. With `Cc1cc2ncccc2c2nc(N)n(C)c12`, for the setting “TD50_Mouse_Note: TD50 is harmonic mean of more than one positive test, TargetSites_Mouse_Female: large intestine, liver, stomach”, the Potency was 0.073 mmol/kg/day.

With `NC(N)=NC(N)=NCCc1ccccc1`, the outcome under setting [2] is “inactive; no positive results”.

For `S=P(N1CC1)(N1CC1)N1CC1`, the Potency (TD50_Mouse_Note: positive test results only by intraperitoneal or intravenous injection, TD50 is harmonic mean of more than one positive, TargetSites_Mouse_Female: hematopoietic system) was 0.00118 mmol/kg/day. `CC(C)NCC(O)c1ccc2ccccc2c1` (stereo not given): the outcome under setting [2] is “inactive; no positive results”. With `O=[N+]([O-])c1ccc(-c2cnc3ccccn23)o1`, the Potency (TD50_Mouse_Note: TD50 is harmonic mean of more than one positive test, TargetSites_Mouse_Female: esophagus, stomach) is 0.118 mmol/kg/day. For `Nc1cc(Cl)c(N)c(Cl)c1`, the Potency under setting [3] was 4.54 mmol/kg/day. As for `Brc1c(Br)c(Br)c(Oc2c(Br)c(Br)c(Br)c(Br)c2Br)c(Br)c1Br`, the outcome under setting [2] is “inactive; no positive results”.

The record behind these values is PubChem BioAssay AID1199 (EPA DSSTox, 2008).
